Among the data in BindingDB's records for doi:10.7270/Q2BK19S0 (The Scripps Research Institute Molecular Screening Center, 2010) are IC50 values, retold here.

This experiment deals with Photoreceptor-specific nuclear receptor (Homo sapiens, UniProt Q9Y5X4). Nature of the experiment: ligands suppressing NR2E3 nuclear receptor activity – biochemical, TR-FRET, dose response (AID 463256). (Time-resolved FRET reads energy transfer from a long-lived donor to a nearby acceptor.)

pIC50: −log10 of the molar value.

Photoreceptor-specific nuclear receptor, sequence (Q9Y5X4 whole entry): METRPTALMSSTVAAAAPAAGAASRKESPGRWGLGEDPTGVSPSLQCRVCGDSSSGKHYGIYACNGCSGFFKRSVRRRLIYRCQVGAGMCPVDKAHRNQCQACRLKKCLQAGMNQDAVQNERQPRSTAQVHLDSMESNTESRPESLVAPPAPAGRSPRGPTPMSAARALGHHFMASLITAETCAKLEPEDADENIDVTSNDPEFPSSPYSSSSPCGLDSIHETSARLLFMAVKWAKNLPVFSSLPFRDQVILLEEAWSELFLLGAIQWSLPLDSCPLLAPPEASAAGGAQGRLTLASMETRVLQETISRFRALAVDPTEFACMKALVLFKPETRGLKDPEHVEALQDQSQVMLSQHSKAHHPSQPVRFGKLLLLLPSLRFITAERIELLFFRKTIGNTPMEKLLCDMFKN

Regarding `COc1ccc(-n2cc(O)c(-c3nc(-c4ccccc4)cs3)c2N)cc1` [5-amino-1-(4-methoxyphenyl)-4-(4-phenyl-1,3-thiazol-2-yl)-2H-pyrrol-3-one], the negative-log IC50 (pIC50) (in general, −log10 of the IC50, conventionally taken in molar units) is 4.87.
